{"source": "patent US20250152580A1", "about": "“METHODS FOR TREATING IMMUNE DISEASES” (Ascentage Pharma (Suzhou) co., Ltd., priority 2022, published 2025)", "type_in_all_cases": "in vivo", "key": {"[1]": {"system": "OVA induced asthma model", "test": "OVA (ovalbumin) induced asthma model in Balb/cA mice", "conditions": "for pathological score in lung tissues (H&E): vehicle 4.08±0.23", "from_the_text": "Ovalbumin (OVA)-sensitized and challenged BALB/c mice are widely used as an asthma model and are characterized by high levels of serum IgE, airway inflammation, epithelial hypertrophy, goblet cell hyperplasia, and AHR, which are similar to the features observed in human allergic asthma.\nFemale Balb/cA mice (8 weeks old) were obtained from Shanghai Jihui Laboratory Animal Co. Ltd. Animals were housed and handled in a temperature-controlled environment with a 12-h light/12-h dark cycle. A total of 66 mice were assigned to 6 groups by randomization based on body weight.\nMice in Group 2 are intraperitoneally immunized with OVA (25 μg) emulsified in Imject alum (2.0 mg of Al[OH]3) on day 1. During this sensitization phase, the mice produce anti-OVA IgE antibodies, which bind IgE receptors on mast cells. After this sensitization, the mice are intratracheally challenged with OVA from day 8 today 14, resulting in OVA cross-linked IgE on mast cells and leading to degranulating mast cells. Mice then develop clinical features of asthma. The mice in the Group 1 normal control group were sensitized and challenged with […] (without OVA).\nMice in Group 1 and Group 2 were treated with vehicle for 7 days (po, qd, from day 8 to day 14). Mice in Group 3 were treated with 50 mg/kg Cpd. X for 8 days (iv, biw, day 1 and day 4). Mice in Group 4 were treated with 30 mg/kg Cpd. 4 for 7 days (po, qd, from day 8 to day 14). Mice in Group 5 were treated with 100 mg/kg Cpd. 4 for 7 days (po, qd, from day 8 to day 14). 3 mg/kg dexamethasone was used as positive control which was orally administered to mice in Group 6 for 7 days (qd, from day 8 to day 14). The protocols and procedures involving the care and use of animals were approved by the Institutional Animal Care and Use Committee (IACUC) at KCI (Suzhou, China).\nAirway responsiveness was determined invasively based on lung resistance.\nAfter challenge with aerosolized methacholine. Briefly, mice were challenged with methacholine aerosol in increasing concentrations (0, 6.25, 12.5, and 25 mg/mL in saline) on day 13 by using the noninvasive pulmonary function instrument. Data on lung resistance were continuously collected, and mean values were selected to express changes in airway function and regarded as one form of inflammation expression. Data are presented as the airway stenosis index (penh).\nTwenty-four hours after the final OVA challenge (on day 15), mice were killed, and BAL cells were collected by means of slow injection of ice-cold PBS into the trachea, which was repeated 3 times. Numbers of cells in BAL fluid were counted with a chamber. Number of eosinophils in a total of 100 cells was counted under a microscope. Results are expressed as percentage of eosinophils of BAL fluid.\nTwenty-four hours after the final OVA challenge (on day 15), mice were killed, and the serum was collected. The OVA-specific IgE levels were measured with the method of enzyme linked immunosorbent assay (ELISA) according to manufacturer protocol.\nTwenty-four hours after the final OVA challenge (on day 15), mice were killed, and the lung tissue samples were collected and fixed in 4% paraformaldehyde. Then, they were embedded in paraffin and cut into […] sections for histopathological analysis. Lung sections were then stained with hematoxylin and eosin (H&E) to calculate the inflammatory changes. The histopathological score was evaluated microscopically in a blinded manner. Five arbitrarily selected fields of each mouse were photographed with an optical microscope and the images were determined and analyzed in detail. […]"}, "[2]": {"system": "LPS inhalation induced lung neutrophils infiltration model", "test": "LPS inhalation induced neutrophils infiltration model in C57BL/6 mice", "conditions": "Cpd. 4 50 mg/kg oral each day, Cpd. X 50 mg/kg iv twice a week, Cpd. XI 12 mg/kg iv twice a week, week 4-10; compared with Vehicle", "protocol": "C57BL/6 mice (6-8 weeks old) were obtained from Shanghai LC Laboratory Animal Co. Ltd. Animals, housed and handled in a temperature-controlled environment with a 12-h light/12-h dark cycle. A total of 60 female C57BL/6J mice will be modeled by atomization inhalation LPS 3 times a week for 10 weeks (adjustments may be made according to animal health status). LPS concentration is at 0.7 mg/mL. On each day of challenge, animals in G1 will receive aerosol inhalation of PBS and intravenous injection of Vehicle; animals in G2 will receive aerosol inhalation of LPS and intravenous injection of Vehicle; animals in G3 will be given aerosol inhalation of LPS and intravenous injection of 50 mg/kg Cpd. X twice a week (D1/4) from week 4-10; animals in G4 will be given aerosol inhalation of LPS and intravenous injection of 12 mg/kg Cpd.XI twice a week (D1/4) from week 4-10; animals in G5 will be given aerosol inhalation of LPS and oral administration of 50 mg/kg Cpd. 4 each day from week 4-10; animals in G6 will be given aerosol inhalation of LPS and oral administration of dexamethasone 1 hour before each challenge. Lungs will be gently lavaged via the tracheal cannula with 0.8 mL of PBS containing 1% BSA and 0.6 mM EDTA 48 hr after the last LPS exposure. The procedure will be repeated twice with 0.8 mL of PBS containing 1% BSA and 0.6 mM EDTA. The bronchoalveolar lavage fluid (BALF) will be centrifuged at 300×g for 5 min at 4° C., the cell pellet will be resuspended in 1.5 mL PBS. Total numbers of neutrophils in BALF will be counted using a hemocytometer."}, "[3]": {"system": "OXA induced DTH model", "test": "OXA induced delayed type hypersensitivity (DTH) model in Balb/c mice", "from_the_text": "A delayed-type hypersensitivity (DTH) reaction is an expression of cell-mediated immunity and plays a major role in the pathology and chronicity of many inflammatory disorders. Delayed-type hypersensitivity (DTH) reactions can be induced by allergens, including oxazolone.\nFemale Balb/c mice (6-8 weeks old) were obtained from Shanghai Jihui Experiment Animal Feeding Co. Ltd. Animals were housed and handled in a temperature-controlled environment with a 12-h light/12-h dark cycle. A total of 48 mice were assigned to 6 groups by randomization based on body weight.\nTo induce DTH, all right ears of mice except the G1 sham control group were applied with oxazolone (OXA). Briefly, skin inflammation was induced by topical administration with 100 μL of 1.5% OXA dissolved in acetone/olive oil on day 1 and repeated 20 μL of 1% OXA on day 6. G1 sham control group was treated same volume of vehicles. Therapeutic group of 100 mg/kg Cpd. 4 (po, 0 h/6 h after challenge on day 6) or 0.05 mg/ear dexamethasone (topical, 1 h/6 h after challenge on day 6) were applied to the mice. […]\nEar thickness were measured with a micrometer before challenge on day 6 and 24 h after oxazolone challenge on Day 7 and reported as the mean change in ear thickness. […]"}, "[4]": {"conditions": "day 15, Cpd. 4 30 and 100 mg/kg po qd, Cpd. X 50 mg/kg iv biw, dexamethasone 3 mg/kg po qd, compared with Vehicle"}}, "note": "Entries after “also recorded” stand apart in the source; their conditions may differ.", "data": [{"smiles": "O=C(NS(=O)(=O)c1ccc(NC[C@H]2COCCO2)c([N+](=O)[O-])c1)c1ccc(N2CCN(CC3=C(c4ccc(Cl)cc4)CC4(CCC4)CC3)CC2)cc1Oc1cnc2[nH]ccc2c1", "note": "[Cpd. 4, (S)-N-((4-(((1,4-dioxan-2-yl)methyl)amino)-3-nitrophenyl)sulfonyl)-2-((1H-pyrrolo[2,3-b]pyridin-5-yl)oxy)-4-(4-((6-(4-chlorophenyl)spiro[3.5]non-6-en-7-yl)methyl)piperazin-1-yl)benzamide]", "values": [{"measurement": "pathological score in lung tissues (H&E)", "setting": "[1]; 30 mg/kg po qd day 8-14, day 15", "value": "2.64±0.08"}, {"measurement": "pathological score in lung tissues (H&E)", "setting": "[1]; 100 mg/kg po qd day 8-14, day 15", "value": "2.66±0.17"}, {"measurement": "pathological score in lung tissues (in words)", "setting": "[1]; Cpd. 4 and Cpd. X, compared with Vehicle", "value": "significantly ameliorated"}, {"measurement": "percentage of eosinophils in BALF", "setting": "[1]; [4]", "value": "downregulated markedly; also recorded: significantly downregulated"}, {"measurement": "serum OVA-specific IgE (ELISA)", "setting": "[1]; [4]", "value": "significantly reduced; also recorded: significantly decreased"}, {"measurement": "airway stenosis index (penh), airway hyper-responsiveness (AHR)", "setting": "[1]; methacholine challenge day 13, Cpd. 4 30 and 100 mg/kg po qd day 8-14, Cpd. X 50 mg/kg iv biw, dexamethasone 3 mg/kg po qd, compared with Vehicle", "value": "significant inhibitory activity; also recorded: significantly reduced"}, {"measurement": "BALF neutrophils (infiltration in lung)", "setting": "[2]", "value": "significantly reducing the BALF neutrophils; also recorded: significantly reduced"}, {"measurement": "increase of ear thickness (day 7 − day 6)", "setting": "[3]; 100 mg/kg po 0 h/6 h after challenge on day 6, vehicle 0.24±0.01 mm", "value": "0.22±0.03", "unit": "mm"}, {"measurement": "increase of ear thickness (in words)", "setting": "[3]; Cpd. 4 100 mg/kg po, dexamethasone 0.05 mg/ear topical 1 h/6 h after challenge on day 6", "value": "moderately reduced"}]}]}
